The subject of one data set is P. aeruginosa ATCC 27853. The experiment in a line: CO-ADD MIC assay, P. aeruginosa ATCC 27853. The class given is cell-based. To be noted: Pseudomonas aeruginosa, ATCC27853, Table S1. An excerpt:
(§1) The N-arytriazole and N-naphthyltriazole peptidomimetics were subjected to antimicrobial screening. […] Vancomycin, colistin, fluconazole, and tamoxifen were used as positive controls (see Table 1 for details).
(§2) Secondary screening (MRSA and Gram-negative bacteria) and cytotoxicity assay–performed by the Community for Open Antimicrobial Drug Discovery (CO-ADD). Samples were provided to CO-ADD [29] for antimicrobial screening by whole cell growth inhibition assays.
(§3) Bacterial Inhibition–MIC Assay. These were performed as described previously.

In data set [1] the test system is E. coli ATCC 25922. The data set is described as follows: Primary MIC assay, E. coli ATCC 25922. To be noted: Escherichia coli, ATCC25922; Table 1; read-out: MIC E. coli ATCC 25922. Format: cell-based.
The test system of the next data set is S. aureus ATCC 43300. The data set is described as follows: CO-ADD MIC assay, S. aureus ATCC 43300 (MRSA). Format: cell-based. As to conditions: Staphylococcus aureus, Table S1; MRSA; CO-ADD; read-out: MIC S. aureus ATCC 43300.
Source text: as §1, §2, §3

A further data set has as its system A. baumannii ATCC 19606. The data set is described as follows: CO-ADD MIC assay, A. baumannii ATCC 19606. The class given is cell-based. As to conditions: Acinetobacter baumannii, ATCC19606, Table S1.
Source text: as §1, §2, §3

Another data set has as its system E. faecalis ATCC 29212. The data set is described as follows: Primary MIC assay, E. faecalis ATCC 29212. As to conditions: Enterococcus faecalis, ATCC29212; Table 1; read-out: MIC E. faecalis ATCC 29212. The class given is cell-based, Enterococcus faecalis. The method, then:
as §1
(§4) Primary screening (Gram-positive bacteria). Primary MIC assays were performed as described by the Clinical and Laboratory Standards Institute for aerobic and anaerobic bacteria. MIC values for vancomycin were within acceptable QC ranges.

Another data set relates to C. difficile 132 (RT027). The experiment in a line: Primary MIC assay, C. difficile 132 (RT027). Format: cell-based, Clostridioides difficile. To be noted: Clostridioides difficile; Table 1; read-out: MIC C. difficile 132 (RT027). The method, then: as §1, §4
The nature of data set [2]: Cytotoxicity (CC50) assay by CO-ADD. To be noted: human, HEK293 cells (ATCC CRL-1573); Table 1; cytotoxicity on HEK293 cells, tested at ≤32 µg/mL. The class given is cell-based, human.
Source text: as §1, §2
Cytotoxicity Assay. These were performed as described previously.

A further data set relates to human erythrocytes. The data set is described as follows: Hemolysis assay, HC50 determination. The class given is cell-based. The method, then: Hemolysis assay (human erythrocytes)–HC50 determination. These were performed as described previously.
For data set [3], the system named is K. pneumoniae ATCC 700603. The experiment in a line: CO-ADD MIC assay, K. pneumoniae ATCC 700603. The class given is cell-based. To be noted: Klebsiella pneumoniae, ATCC700603, Table S1, multi-drug resistant.
Source text: as §1, §2, §3

The test system of data set [4] is E. coli ATCC 25922. The data set is described as follows: CO-ADD MIC assay, E. coli ATCC 25922. Format: cell-based. As to conditions: Escherichia coli, ATCC25922, Table S1.
Source text: as §1, §2, §3

In data set [5] the test system is Cryptococcus neoformans var. grubii ATCC 208821. The experiment in a line: CO-ADD MIC assay, C. neoformans var. grubii ATCC 208821. Format: cell-based. To be noted: Cryptococcus neoformans, ATCC208821, Table S1.
Source text: as §1, §2

For the next data set, the system named is S. aureus NCTC 10442. The experiment in a line: Primary MIC assay, S. aureus NCTC 10442 (MRSA). Format: cell-based. As to conditions: Staphylococcus aureus; Table 1; MRSA; read-out: MIC S. aureus NCTC 10442. The method, then:
as §1, §4

The subject of another data set is S. pneumoniae ATCC 49619. The experiment in a line: Primary MIC assay, S. pneumoniae ATCC 49619. To be noted: Streptococcus pneumoniae, ATCC49619; Table 1; read-out: MIC S. pneumoniae ATCC 49619. Format: cell-based, Streptococcus pneumoniae. The method, then:
as §1, §4

A further data set relates to C. difficile ATCC 700057. The experiment in a line: Primary MIC assay, C. difficile ATCC 700057. As to conditions: Clostridioides difficile, ATCC700057; Table 1; read-out: MIC C. difficile ATCC 700057. The class given is cell-based, Clostridioides difficile. The method, then: as §1, §4
A further data set has as its system C. albicans ATCC 90028. The experiment in a line: CO-ADD MIC assay, C. albicans ATCC 90028. Format: cell-based. To be noted: Candida albicans, ATCC90028, Table S1.
Source text: as §1, §2

The next data set has as its system S. aureus ATCC 29213. The experiment in a line: Primary MIC assay, S. aureus ATCC 29213. The class given is cell-based. As to conditions: Staphylococcus aureus, ATCC29213; Table 1; read-out: MIC S. aureus ATCC 29213. The method, then:
as §1, §4

Setting [6] is: Table 1, lysis of human erythrocytes.
The mark [7] stands for this setting: Table S1, footnote says lysis of sheep erythrocytes.

≈ marks a conversion by molar mass, not a printed value.

With `CC(C)CCc1cnnn1-c1ccccc1OCC(=O)N[C@H](CCCNC(=N)N)Cn1cc(CC2CCCCC2)nn1.Cl` [Compound 15], the MIC with P. aeruginosa ATCC 27853 is over 32 µg/mL; in the data set with E. coli ATCC 25922 [1], 128 µg/mL; in the data set with S. aureus ATCC 43300, 32 µg/mL; against A. baumannii ATCC 19606, over 32 µg/mL; in the data set with E. faecalis ATCC 29212, 16 µg/mL; in the data set with C. difficile 132 (RT027) it was 64 µg/mL. In addition, the MIC is over 32 µg/mL in data set [3]; over 32 µg/mL against E. coli ATCC 25922 [4]; 32 µg/mL in data set [5]; 16 µg/mL in the data set with S. aureus NCTC 10442; 16 µg/mL in the data set on S. pneumoniae ATCC 49619; 64 µg/mL in the data set on C. difficile ATCC 700057. Moreover, the MIC was over 32 µg/mL against C. albicans ATCC 90028 and 16 µg/mL in the data set with S. aureus ATCC 29213. In data set [2], this compound showed a CC50 of over 32 µg/mL. Also, the HC50 in the data set on human erythrocytes (setting [6]) and with human erythrocytes (setting [7]) was over 32 µg/mL each time.
With `CC(C)CCc1cnnn1-c1ccccc1OCC(=O)N[C@H](CCCNC(=N)N)Cn1cc(Cc2ccccc2)nn1.Cl` [Compound 16], the MIC against P. aeruginosa ATCC 27853 was over 32 µg/mL; in the data set on E. coli ATCC 25922 [1] it was over 128 µg/mL; in the data set with S. aureus ATCC 43300, 32 µg/mL; in the data set with A. baumannii ATCC 19606, over 32 µg/mL; in the data set with E. faecalis ATCC 29212, 32 µg/mL; in the data set on C. difficile 132 (RT027) it was 32 µg/mL. For the same compound, the MIC was over 32 µg/mL in data set [3]; over 32 µg/mL against E. coli ATCC 25922 [4]; 32 µg/mL in data set [5]; 32 µg/mL in the data set on S. aureus NCTC 10442; 32 µg/mL with S. pneumoniae ATCC 49619; 32 µg/mL in the data set with C. difficile ATCC 700057. Moreover, the MIC is over 32 µg/mL against C. albicans ATCC 90028 and 32 µg/mL in the data set with S. aureus ATCC 29213. In [2], this compound came in with a CC50 of over 32 µg/mL. Further, the 50% haemolytic concentration (HC50) with human erythrocytes (setting [6]) and with human erythrocytes (setting [7]) was over 32 µg/mL in each case.
`CC(C)CCc1cn(-c2c(OCC(=O)N[C@H](CCCNC(=N)N)Cn3cc(CC4CCCCC4)nn3)ccc3ccccc23)nn1.Cl` [Compound 22]: the MIC is over 32 µg/mL in the data set on P. aeruginosa ATCC 27853; 32 µg/mL in the data set with E. coli ATCC 25922 [1]; 4 µg/mL with S. aureus ATCC 43300; over 32 µg/mL with A. baumannii ATCC 19606; 8 µg/mL in the data set with E. faecalis ATCC 29212; 32 µg/mL in the data set with C. difficile 132 (RT027). The MIC in [3] was over 32 µg/mL; in the data set on E. coli ATCC 25922 [4], 32 µg/mL; in data set [5], 32 µg/mL; with S. aureus NCTC 10442 it was 4 µg/mL; with S. pneumoniae ATCC 49619, 8 µg/mL; with C. difficile ATCC 700057 it was 32 µg/mL. The MIC in the data set with C. albicans ATCC 90028 came to 16 µg/mL; with S. aureus ATCC 29213, 4 µg/mL. In data set [2], this compound gave a CC50 of over 32 µg/mL. In addition, the HC50 in the data set with human erythrocytes (setting [6]) and in the data set on human erythrocytes (setting [7]) was over 32 µg/mL in each case.
On to `CC(C)CCc1cn(-c2c(OCC(=O)N[C@H](CCCNC(=N)N)Cn3cc(Cc4ccccc4)nn3)ccc3ccccc23)nn1.Cl` [Compound 23], for which the MIC is over 32 µg/mL against P. aeruginosa ATCC 27853; 64 µg/mL in the data set with E. coli ATCC 25922 [1]; 8 µg/mL in the data set on S. aureus ATCC 43300; over 32 µg/mL against A. baumannii ATCC 19606; 4 µg/mL in the data set with E. faecalis ATCC 29212; 32 µg/mL in the data set on C. difficile 132 (RT027). The MIC was over 32 µg/mL in data set [3]; 32 µg/mL against E. coli ATCC 25922 [4]; 16 µg/mL in data set [5]; 4 µg/mL in the data set on S. aureus NCTC 10442; 4 µg/mL with S. pneumoniae ATCC 49619; 32 µg/mL in the data set with C. difficile ATCC 700057. Also, the MIC came out at 32 µg/mL against C. albicans ATCC 90028 and 4 µg/mL in the data set with S. aureus ATCC 29213. The same compound displayed a CC50 in data set [2] of over 32 µg/mL. Besides, the concentration for 50% haemolysis (HC50) in the data set with human erythrocytes (setting [6]) and in the data set with human erythrocytes (setting [7]) was over 32 µg/mL each time.
As to `CC(C)CCc1cnnn1-c1c(OCC(=O)N[C@H](CCCNC(=N)N)Cn2cc(C3CCCCC3)nn2)ccc2ccccc12` [Compound 24], the MIC is 32 µg/mL (≈ 52 µM) with P. aeruginosa ATCC 27853; 32 µg/mL (≈ 52 µM) in the data set on E. coli ATCC 25922 [1]; 8 µg/mL (≈ 13 µM) in the data set on S. aureus ATCC 43300; 32 µg/mL (≈ 52 µM) against A. baumannii ATCC 19606; 8 µg/mL (≈ 13 µM) in the data set with E. faecalis ATCC 29212; 32 µg/mL (≈ 52 µM) in the data set on C. difficile 132 (RT027). The minimal inhibitory concentration (MIC) in data set [3] is over 32 µg/mL; in the data set on E. coli ATCC 25922 [4], 32 µg/mL (≈ 52 µM); in data set [5], over 32 µg/mL; in the data set on S. aureus NCTC 10442 it was 8 µg/mL (≈ 13 µM); in the data set with S. pneumoniae ATCC 49619 it was 8 µg/mL (≈ 13 µM); with C. difficile ATCC 700057, 32 µg/mL (≈ 52 µM). Besides, the figures for the MIC with C. albicans ATCC 90028 and in the data set on S. aureus ATCC 29213 were 32 µg/mL (≈ 52 µM) and 8 µg/mL (≈ 13 µM), respectively. In [2], this compound returned a CC50 of 21.9 µg/mL (≈ 35.6 µM). Besides, the HC50 with human erythrocytes (setting [6]) and in the data set with human erythrocytes (setting [7]) was over 32 µg/mL in each case.

The values above are taken from PMC8388771, “Cationic Peptidomimetic Amphiphiles Having a N-Aryl- or N-Naphthyl-1,2,3-Triazole Core Structure Targeting Clostridioides (Clostridium) difficile: Synthesis, Antibacterial Evaluation, and an In Vivo C. difficile Infection Model” (Antibiotics, 2021).
